# Experimental data from patent publication US4307100A (priority 1978, dated 1981).
# Columns and labels:
# tubulin [1] = assay: Inhibition of the polymerisation of tubulin (UV, 350 nm); assay type: biochemical, pigs; conditions: for I50/I50 vinblastine: tartrates, tubulin concentration ~ 2 mg/ml, ratio to vinblastine
# Source text: (§1) The receiver of anti-tumoral indolic alkaloids of the vinblastine type is tubulin.
# (§2) It is readily extracted from pigs' brains where it preresents 10% of the soluble proteins.
# (§3) The polymerisation of tubulin into microtubules may readily be followed by means of a UV spectrophotometer observing at 350 nm. The maximum polymerisation velocity is thus determined; it is reduced by the addition of inhibitors of the vinblastine type and a concentration, I50, reducing the polymerisation velocity by half is obtained for each substance tested. A second effect of these products is taken into consideration: with higher doses, after complete inhibition of polymerisation, spiralisation of the tubulin is observed (verified by electron microscopy) and a new concentration, S50, corresponding to the appearance of 50% of the phenomenon is determined.
# (§4) The results of each product are always compared with those of the vinblastine used as reference.
# (§5) The results of the interaction tests with
# (§6) tubulin carried out on the tartrates are summarised
# (§7) in the following Table (tubulin concentration
# (a) I50 : concentration of the product inhibiting 50% of the velocit
# of polymerisation of the tubulin. I50 vinblastine = 2,10^-6.
# tubulin [2] = assay: Spiralisation of tubulin (S50); assay type: biochemical, pigs; conditions: for S50/S50 vinblastine: tartrates, tubulin concentration ~ 2 mg/ml, ratio to vinblastine
# Source text: as §1, §2, §3, §4, §5, §6, §7
# (b) S50 : concentration of the product required for inducing 50% of
# the maximum spiralisation of the tubulin.
# L1210 leukaemia = assay: Activity in the L1210 leukaemia test on mice; assay type: in vivo, mice (DBA/2 female); conditions: tartrate
# Procedure: Table III below summarises the results obtained with the compound of Example 1 in the form of its tartrate in the treatment of L1210 leukaemia:
# (§8) Graft→treatment interval: 24 h.
# Conc. 0.5 and 1 mg/ml in physiological serum.
# [3] = Toxicity of the product of Example 1 in tartrate form, single dose, mortality over 35 days; assay type: in vivo, DBA/2 female mice; conditions: for Distribution of mortality, 1: column 1 (day); for Distribution of mortality, 6: column 6 (day); for Distribution of mortality, 3: column 3 (day)
# Source text: A single dose of the test product is intraperitoneally administered to DBA/2 .female. mice and the mortality rate studied over a period of 35 days.
# P388 leukaemia = assay: Activity in the P388 leukaemia test on mice; assay type: in vivo, mice (DBA/2 female); conditions: tartrate; for ratio of T and C (formula drawing 15): C = average life of treated, control group; for Mean survival period: control 10.5 ± 0.8
# Procedure: Table II below exemplifies the results obtained with the compound of Example 1 in the form of its tartrate in the treatment of P388 leukaemia.
# T=average life (in days) of the mice of the treated group
# C=average life (in days) of the mice of the control group
# Graft: P 388 (10^6 cell./mice ip)
# as §8
# leukaemia studied = assay: Leukaemia tests on mice, overall conclusion; assay type: in vivo; conditions: in words, compared with vincristine and vinblastine
# Source text: (2) Activity in the P388 leukaemia test on mice
# (3) Activity in the L1210 leukaemia test on mice
# [4] = comparison value, cited from earlier work; for DL50: i.v.
compound,measurement,setting,value
CCC12CN3Cc4c([nH]c5ccccc45)[C@@](C(=O)OC)(c4cc5c(cc4OC)N(C=O)[C@H]4[C@@](O)(C(=O)OC)[C@H](OC(C)=O)[C@]6(CC)C=CCN7CC[C@]54[C@@H]76)C[C@@H](C3)C1O2 (stereo partly shown) [5'-nor-Na-desmethyl Na-formyl leurosine],I50/I50 vinblastine,tubulin [1],2.77
same,S50/S50 vinblastine,tubulin [2],2.5
CCC1=C[C@@H]2CN(C1)Cc1c([nH]c3ccccc13)[C@@](C(=O)OC)(c1cc3c(cc1OC)N(C)[C@H]1[C@@](O)(C(=O)OC)[C@H](OC(C)=O)[C@]4(CC)C=CCN5CC[C@]31[C@@H]54)C2 [5'-noranhydrovinblastine],I.L.S. (formula drawing 16),L1210 leukaemia; 5 mg/kg i.p.,40
same,ratio (formula drawing 17),L1210 leukaemia; 5 mg/kg i.p.,140
same,Mean survival period,"L1210 leukaemia; 5 mg/kg i.p., control 8.6 ± 0.4",12.0 ± 0.9 days
same,I.L.S. (formula drawing 16),"L1210 leukaemia; 10 mg/kg i.p., first line",57
same,Mean survival period,"L1210 leukaemia; 10 mg/kg i.p., first line, control 8.6 ± 0.4",13.5 ± 0.9 days
same,ratio (formula drawing 17),"L1210 leukaemia; 10 mg/kg i.p., first value",157
same,I.L.S. (formula drawing 16),"L1210 leukaemia; 10 mg/kg i.p., second line",50
same,Mean survival period,"L1210 leukaemia; 10 mg/kg i.p., second line, control 8.6 ± 0.7",12.9 ± 1.3 days
same,ratio (formula drawing 17),"L1210 leukaemia; 10 mg/kg i.p., second value",150
same,I.L.S. (formula drawing 16),"L1210 leukaemia; 25 mg/kg i.p., first line",65
same,Mean survival period,"L1210 leukaemia; 25 mg/kg i.p., first line, control 8.6 ± 0.4",14.2 days
same,ratio (formula drawing 17),"L1210 leukaemia; 25 mg/kg i.p., first value",165
same,I.L.S. (formula drawing 16),"L1210 leukaemia; 25 mg/kg i.p., second line",57
same,Mean survival period,"L1210 leukaemia; 25 mg/kg i.p., second line, control 8.6 ± 0.7",13.5 days
same,ratio (formula drawing 17),"L1210 leukaemia; 25 mg/kg i.p., second value",157
same,activity in regard to the inhibition of polymerisation,"tubulin [1]; in words, compared with vinblastine",activity similar to vinblastine
same,I50/I50 vinblastine,tubulin [1],0.7
same,"Distribution of mortality, 1",[3]; 50 mg/kg i.p.,1
same,"Distribution of mortality, 4","[3]; 50 mg/kg i.p., column 4 (day)",1
same,"Distribution of mortality, 6",[3]; 50 mg/kg i.p.,1
same,"Distribution of mortality, 9","[3]; 50 mg/kg i.p., column 9 (day)",1
same,Mortality over 35 days,"[3]; 50 mg/kg single i.p. dose, tartrate, 5 mice",4/5
same,"Distribution of mortality, 1",[3]; 75 mg/kg i.p.,3
same,"Distribution of mortality, 3",[3]; 75 mg/kg i.p.,1
same,"Distribution of mortality, 6",[3]; 75 mg/kg i.p.,1
same,"Distribution of mortality, 3",[3]; 100 mg/kg i.p.,3
same,Mortality over 35 days,"[3]; 100 mg/kg single i.p. dose, tartrate, 3 mice",3/3
same,toxicity compared with vincristine and vinblastine,[3]; in words,far less toxic
same,mortality at 840 h,"[3]; mouse, in vivo, ip, 25 mg/kg single i.p. dose, tartrate, 5 mice",0%
same,DL0,"[3]; single i.p. dose, tartrate, DBA/2 female mice, 35 days",25 mg/kg
same,I.L.S. (formula drawing 14),P388 leukaemia; 5 mg/kg i.p.,29.5
same,ratio of T and C (formula drawing 15),P388 leukaemia; 5 mg/kg i.p.,129.5
same,Mean survival period,P388 leukaemia; 5 mg/kg i.p.,13.6 ± 0.8 days
same,I.L.S. (formula drawing 14),P388 leukaemia; 10 mg/kg i.p.,70.5
same,ratio of T and C (formula drawing 15),P388 leukaemia; 10 mg/kg i.p.,170.5
same,Mean survival period,P388 leukaemia; 10 mg/kg i.p.,17.9 ± 0.9 days
same,I.L.S. (formula drawing 14),P388 leukaemia; 25 mg/kg i.p.,≥ 131.4
same,ratio of T and C (formula drawing 15),P388 leukaemia; 25 mg/kg i.p.,≥ 231.4
same,Mean survival period,P388 leukaemia; 25 mg/kg i.p.,≥ 24.3 days
same,"""spiralising"" activity",tubulin [2]; in words,"does not have any ""spiralising"" activity"
same,S50/S50 vinblastine,tubulin [2],0.8-1.0
same,activity on the leukaemia studied,leukaemia studied,more active than vincristine and vinblastine
CCC1=C[C@@H]2CN(C1)Cc1c([nH]c3ccccc13)[C@@](C(=O)OC)(c1cc3c(cc1OC)N(C=O)[C@H]1[C@@](O)(C(=O)OC)[C@H](OC(C)=O)[C@]4(CC)C=CCN5CC[C@]31[C@@H]54)C2 [5'-noranhydrovincristine],I50/I50 vinblastine,tubulin [1],0.8
same,S50/S50 vinblastine,tubulin [2],0.66
CCC12CN3Cc4c([nH]c5ccccc45)[C@@](C(=O)OC)(c4cc5c(cc4OC)N(C)[C@H]4[C@@](O)(C(=O)OC)[C@H](OC(C)=O)[C@]6(CC)C=CCN7CC[C@]54[C@@H]76)C[C@@H](C3)C1O2 (stereo partly shown) [5'-norleurosine],I50/I50 vinblastine,tubulin [1],1.0
same,S50/S50 vinblastine,tubulin [2],3
CCC1=C[C@@H]2CN(C1)Cc1c([nH]c3ccccc13)[C@@](C(=O)OC)(c1cc3c(c(Cl)c1OC)N(C)[C@H]1[C@@](O)(C(=O)OC)[C@H](OC(C)=O)[C@]4(CC)C=CCN5CC[C@]31[C@@H]54)C2 [12-chloro-5'-noranhydrovinblastine],I50/I50 vinblastine,tubulin [1],13
"CCC1=C[C@@H]2CN(CCc3c([nH]c4ccccc34)[C@@](C(=O)OC)(c3cc4c(cc3OC)N(C=O)[C@H]3[C@@](O)(C(=O)OC)[C@H](OC(C)=O)[C@]5(CC)C=CCN6CC[C@]43[C@@H]65)C2)C1 [anhydrovincristine, reference compound]",I50/I50 vinblastine,tubulin [1],1.8
same,S50/S50 vinblastine,tubulin [2],1.5
"CC[C@]1(O)C[C@@H]2CN(CCc3c([nH]c4ccccc34)[C@@](C(=O)OC)(c3cc4c(cc3OC)N(C)[C@H]3[C@@](O)(C(=O)OC)[C@H](OC(C)=O)[C@]5(CC)C=CCN6CC[C@]43[C@@H]65)C2)C1 [vinblastine, reference compound]",IC50,"tubulin [1]; reference vinblastine, unit inferred, read-out: I50: concentration of the product inhibiting 50% of the velocity of polymerisation of the tubulin (converted)",[…]
same,DL50,[4],17 mg/kg
CC[C@]1(O)C[C@H]2CN(CCc3c([nH]c4ccccc34)[C@@](C(=O)OC)(c3cc4c(cc3OC)N(C=O)[C@H]3[C@@](O)(C(=O)OC)[C@H](OC(C)=O)[C@]5(CC)C=CCN6CC[C@]43[C@@H]65)C2)C1 [vincristine],DL10,[4]; route not given,3 mg/kg
same,DL50,[4],2 mg/kg
